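Method: 48-hour compound exposure of cells in 96-well plates, five concentrations, linear interpolation of endpoints. GI50 = concentration required for 50% inhibition of growth. At the TGI there is no net growth.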

Data on three compounds can be found in PubChem BioAssay (NCI).

Some test systems named below: CAKI-1 renal; HCT-116 colon; HOP-62 NSCLC; K-562 leukemia; KM12 colon; MDA-MB-231 breast; MDA-MB-435; OVCAR-5 ovarian; SK-MEL-2 melanoma; SW-620 colon.
Common to all, as to test: NCI-60 cell line screen, 48 h

In the case of `Cn1cc(C2=C(c3cn(CCCCC(=N)N)c4ccccc34)C(=O)NC2=O)c2ccccc21`, the GI50 in the assay with CAKI-1 renal was > 25 µM; in the assay on HCT-116 colon, 17.5 µM; with HOP-62 NSCLC it was > 25 µM; in the assay with K-562 leukemia, 13.5 µM; in the assay on KM12 colon, 20.3 µM; in the assay on MDA-MB-231 breast, > 25 µM. For the same compound, the GI50 in the assay on MDA-MB-435 is 10.5 µM; in the assay on OVCAR-5 ovarian, > 25 µM; with SK-MEL-2 melanoma, 12.6 µM; in the assay with SW-620 colon, > 25 µM. Moreover, the TGI with CAKI-1 renal, in the assay on HCT-116 colon, with HOP-62 NSCLC, in the assay on K-562 leukemia, in the assay with KM12 colon and with MDA-MB-231 breast was > 25 µM in each case. In addition, the TGI in the assay on MDA-MB-435, in the assay with OVCAR-5 ovarian, in the assay on SK-MEL-2 melanoma and in the assay with SW-620 colon was > 25 µM in each case.

With `Cc1c(Cl)cccc1NC(=O)c1sc2nc3c(cc2c1N)CCCC3`, the GI50 with CAKI-1 renal was 1.01 µM; in the assay with HCT-116 colon it was 0.425 µM; in the assay with HOP-62 NSCLC it was 0.451 µM; in the assay with K-562 leukemia it was 0.391 µM; in the assay with KM12 colon, 0.482 µM; in the assay with MDA-MB-231 breast, > 100 µM. Further, the GI50 with MDA-MB-435 was 0.226 µM; in the assay on OVCAR-5 ovarian, > 100 µM; with SK-MEL-2 melanoma, 0.46 µM; with SW-620 colon, 0.471 µM. For the same compound, the TGI in the assay on CAKI-1 renal, in the assay with HCT-116 colon, in the assay on HOP-62 NSCLC, in the assay with K-562 leukemia, with KM12 colon and in the assay with MDA-MB-231 breast was > 100 µM each time. Also, the TGI in the assay with MDA-MB-435 was 0.775 µM; in the assay with OVCAR-5 ovarian, > 100 µM; with SK-MEL-2 melanoma, > 100 µM; in the assay on SW-620 colon, > 100 µM.

As to `CCOC(=O)c1c(C)n(Cc2ccccc2)c2c1cc1oc(=O)c(=O)n3cnc2c13`, the GI50 was 14.7 µM in the assay with CAKI-1 renal; 7.36 µM with HCT-116 colon; 29.4 µM with HOP-62 NSCLC; 12.9 µM with K-562 leukemia; 19.2 µM in the assay on KM12 colon; 13 µM in the assay on MDA-MB-231 breast. Besides, the GI50 with MDA-MB-435 is 10.7 µM; in the assay on OVCAR-5 ovarian it was 36.9 µM; with SK-MEL-2 melanoma, > 50 µM; in the assay with SW-620 colon, 14.1 µM. In addition, the TGI is 48.8 µM with CAKI-1 renal; 15.3 µM with HCT-116 colon; > 50 µM with HOP-62 NSCLC; > 50 µM in the assay on K-562 leukemia; > 50 µM with KM12 colon; > 50 µM in the assay on MDA-MB-231 breast. The TGI in the assay with MDA-MB-435 is 32.9 µM; in the assay with OVCAR-5 ovarian, > 50 µM; with SK-MEL-2 melanoma, > 50 µM; in the assay with SW-620 colon, 34.7 µM.
